Results as given in article PMC3022637, “The modulation of TRPM7 currents by nafamostat mesilate depends directly upon extracellular concentrations of divalent cations” (Molecular Brain, 2010).
Like-named read-outs stand apart in the source and are kept apart here.

What was measured:
[1] = target: T1, TRPM7 current in cultured mouse hippocampal neurons (Mus musculus, UniProt Q923J1); experiment: Whole-cell voltage clamp of TRPM7 currents in cultured hippocampal neurons (low divalent cation-induced or compound-activated); type: cell-based; conditions: for IC50: -60 mV, acutely applied, read-out: IC50, block of TRPM7 current
T1 construct: supports the substantial involvement of endogenous TRPM7 channels in the responses of neurons; endogenous in cells; host or cells: primary cultured hippocampal neurons from embryonic Swiss mice

[2] = tested on: human TRPM7 channels; parameters: method as in PMID 18719395; conditions: pH 7.4 to 4.0; cited from earlier work
[3] = tested on: cultured hippocampal neurons; experiment: On-cell loose-patch recording of low Ca2+-induced action potential firing; type: cell-based, mouse; conditions: NM 200 μM; induced by 0.5 mM Ca2+ and 0.5 mM Mg2+; control 8.5 ± 2.7 Hz
[4] = target: T2, wild-type (WT) human TRPM7 (Homo sapiens, UniProt Q96QT4); experiment: Whole-cell recording of recombinant TRPM7 currents in transfected HEK293T cells (voltage ramps); type: cell-based
T2 construct: expressed in transfected cells; host or cells: HEK293T
Procedure: Electrophysiological recordings were made from HEK293T cells transfected wild-type (WT) human TRPM7 or the E1052A, and the D1054A mutant channels, as previously described.
Whole-cell and patch recordings were performed on HEK293T cells at room temperature (22-25°C) with Axopatch 200B (Molecular Devices, Sunnyvale, CA) amplifier. For whole-cell recordings, the Cs^+-based bath solution contained (in mM) 100 Cs-aspartate, 1 EGTA, 10 N-2-Hydroxyethylpiperazine-N'-thanesulfonic acid (HEPES) and 120 mannitol (pH adjusted to 7.4 with CsOH). When required, 1 mM ethyleneglycol-bis-(α-amino-ethyl ether) N,N'-tetra-acetic acid (EGTA) was replaced with added CaCl2 and MgCl2 as indictated in results section. The pipette solution contained 100 Cs-aspartate, 1 EGTA, 10 HEPES, 0.5 CsCl, and 100 mannitol (pH 7.4). The inhibition ratio (%) was calculated according to the following equation: inhibition ratio (%) = 100 × [1 - (INM)/(ICtl)], where ICtl is whole-cell current observed before application of NM at +100 and -100 mV. INM represents the current observed during application of NM.
Data were analyzed with Clampfit 9.2. (Molecular Devices, Sunnyvale, CA), Excel 2002 (Microsoft Corporation, Redmond, WA), Origin 5.0 (OriginLab Corp., Northhampton, MA) and finalized illustrated using CorelDraw X3 (Corel Corporation; Ontario, Canada). Currents were normalized to the amplitude of control responses. NM or DAPI inhibitory concentration-response plots were fitted to the logistic equation: I = (Amax-A0)/[1+(X/IC50)^n]+A0, where I is the normalized current amplitude, X is the antagonist concentration; n is Hill coefficient; IC50 is the concentration of antagonist that generate 50% of maximal inhibition. Results are reported for the text, the figures and amplitude histograms, as mean ± S.E.M. They represent the mean of n individual measurements on different cells. Statistical analysis was done with the unpaired or paired t-test, when appropriate. Chemicals are re-drawn based on the structures downloaded from Pubchem. NM was purchased from BioMol (Plymouth Meeting, PA) and its metabolites p-GBA and AN were from TCI and gabexate, DAPI, HSB from Sigma (St. Louis, MO).

[5] = tested on: T3, human TRPM7 E1052A mutant; experiment: Whole-cell recording of E1052A mutant TRPM7 currents in HEK293T cells; type: cell-based; conditions: 1 mM NM; 0.1 mM Ca2+ and 0.1 mM Mg2+; inward current at -100 mV
T3 construct: expressed in transfected cells; host or cells: HEK293T
Procedure: Electrophysiological recordings were made from HEK293T cells transfected wild-type (WT) human TRPM7 or the […], and the […] mutant channels, as previously described. Whole-cell and patch recordings were performed on HEK293T cells at room temperature (22-25°C) with Axopatch 200B (Molecular Devices, Sunnyvale, CA) amplifier. […] When required, 1 mM ethyleneglycol-bis-(α-amino-ethyl ether) N,N'-tetra-acetic acid (EGTA) was replaced with added CaCl2 and MgCl2 as indictated in results section. […] INM represents the current observed during application of NM.

[6] = tested on: intracellular Ca2+ in cultured mouse cortical neurons; experiment: Fura-2 calcium imaging in cultured cortical neurons; type: cell-based; conditions: NM 50 μM; without NM 1.17 ± 0.03
Procedure: (§1) Time-pregnant Swiss mice (embryonic day 16) were anesthetized with halothane and were decapitated. Brains of fetuses were removed rapidly and placed in Ca^2+ and Mg^2+ free ice cold PBS. Whole hippocampus or cerebral cortices were dissected under a dissection microscope and incubated with 0.05% trypsin-EDTA for 10 min at 37°C, then triturated with fire-polished glass pipettes. Cells were counted and plated in poly-L-ornithine-coated culture dishes at a density of 1 × 10^6 cells per 35 mm diameter dish. Neurons were cultured with neurobasal medium supplemented with B27 and maintained at 37°C in a humidified 5% CO2 atmosphere incubator. Cultures were fed twice a week. Neurons at 14-21 day culture stages were used for electrophysiological recordings and calcium image.
Fura-2 fluorescent Ca^2+ imaging was performed as described previously. Cortical or hippocampal neurons grown on 25 mm round glass coverslips were washed three times with ECF and incubated with 5 μM Fura-2-AM for ~ 40 min at room temperature. […] Digitized images were acquired, stored, and analyzed in a PC controlled by Axon Imaging Workbench software (AIW2.1, Molecular Devices, Sunnyvale, CA). […] Fura-2 fluorescence was detected at an emission wavelength of 510 nm. Ratio images of 340/380 nm were analyzed by averaging pixel ratio values in circumscribed regions of cells in the field of view. […]

[7] = tested on: intracellular Ca2+ in cultured hippocampal neurons; experiment: Fura-2 calcium imaging in cultured hippocampal neurons; type: cell-based, mouse
Procedure: as §1
Fura-2 fluorescent Ca^2+ imaging was performed as described previously. Cortical or hippocampal neurons grown on 25 mm round glass coverslips were washed three times with ECF and incubated with 5 μM Fura-2-AM for ~ 40 min at room temperature. Neurons were then washed three times and incubated in normal ECF for 30 min. Coverslips with Fura-2-loaded neurons were transferred to a perfusion chamber on the stage of an inverted microscope (Nikon TE300, Tokyo, Japan). Cells were illuminated using a xenon lamp (75W) and observed with a 40 × UV fluor oil-immersion objective lens. Video images were obtained using a cooled CCD camera (Sensys KAF 1401, Photometrics, Tucson, AZ) mounted on an inverted microscope (Nikon TE300, Tokyo, Japan). Digitized images were acquired, stored, and analyzed in a PC controlled by Axon Imaging Workbench software (AIW2.1, Molecular Devices, Sunnyvale, CA). The shutter and filter wheel (Lambda 10-2, Sutter Instrument, Novato, CA) were also controlled by AIW to allow timed illumination of cells at 340 and 380 nm excitation wavelengths. Fura-2 fluorescence was detected at an emission wavelength of 510 nm. Ratio images of 340/380 nm were analyzed by averaging pixel ratio values in circumscribed regions of cells in the field of view. […]

[8] = tested on: CA1 neurons in the hippocampal slice; experiment: Low divalent-induced inward current in CA1 neurons in the hippocampal slice; type: cell-based; conditions: co-perfusion
Source text: To verify this we tested several compounds with benzene rings on their outer edge such as DAPI and HSB. Both DAPI and HSB are di-cations but with amidine groups at both termini. […] We also examined the actions of NM on CA1 neurons in the hippocampal slice in order to confirm whether or not NM was capable of inhibiting and activating this current in CA1 neurons in situ. The diffusion barriers presented in the slice preparation preclude very rapid changes in divalent cation concentrations but prolonged solution changes can be used to activate TRPM7 currents in this preparation. Lowering concentrations of divalent cations induced a slowly activating inward current that was attenuated by the co-perfusion of NM (not shown).

[9] = 1 mM (p-GBA up to 1 mM), low divalent-evoked current
[10] = current evoked by 0.1 mM Ca2+ and 0.1 mM Mg2+
[11] = 200 μM, current evoked by 0.1 mM Ca2+ and 0.1 mM Mg2+
[12] = 200 μM, 0.1 mM Ca2+ and 0.1 mM Mg2+

T1 sequence (Q923J1 whole entry): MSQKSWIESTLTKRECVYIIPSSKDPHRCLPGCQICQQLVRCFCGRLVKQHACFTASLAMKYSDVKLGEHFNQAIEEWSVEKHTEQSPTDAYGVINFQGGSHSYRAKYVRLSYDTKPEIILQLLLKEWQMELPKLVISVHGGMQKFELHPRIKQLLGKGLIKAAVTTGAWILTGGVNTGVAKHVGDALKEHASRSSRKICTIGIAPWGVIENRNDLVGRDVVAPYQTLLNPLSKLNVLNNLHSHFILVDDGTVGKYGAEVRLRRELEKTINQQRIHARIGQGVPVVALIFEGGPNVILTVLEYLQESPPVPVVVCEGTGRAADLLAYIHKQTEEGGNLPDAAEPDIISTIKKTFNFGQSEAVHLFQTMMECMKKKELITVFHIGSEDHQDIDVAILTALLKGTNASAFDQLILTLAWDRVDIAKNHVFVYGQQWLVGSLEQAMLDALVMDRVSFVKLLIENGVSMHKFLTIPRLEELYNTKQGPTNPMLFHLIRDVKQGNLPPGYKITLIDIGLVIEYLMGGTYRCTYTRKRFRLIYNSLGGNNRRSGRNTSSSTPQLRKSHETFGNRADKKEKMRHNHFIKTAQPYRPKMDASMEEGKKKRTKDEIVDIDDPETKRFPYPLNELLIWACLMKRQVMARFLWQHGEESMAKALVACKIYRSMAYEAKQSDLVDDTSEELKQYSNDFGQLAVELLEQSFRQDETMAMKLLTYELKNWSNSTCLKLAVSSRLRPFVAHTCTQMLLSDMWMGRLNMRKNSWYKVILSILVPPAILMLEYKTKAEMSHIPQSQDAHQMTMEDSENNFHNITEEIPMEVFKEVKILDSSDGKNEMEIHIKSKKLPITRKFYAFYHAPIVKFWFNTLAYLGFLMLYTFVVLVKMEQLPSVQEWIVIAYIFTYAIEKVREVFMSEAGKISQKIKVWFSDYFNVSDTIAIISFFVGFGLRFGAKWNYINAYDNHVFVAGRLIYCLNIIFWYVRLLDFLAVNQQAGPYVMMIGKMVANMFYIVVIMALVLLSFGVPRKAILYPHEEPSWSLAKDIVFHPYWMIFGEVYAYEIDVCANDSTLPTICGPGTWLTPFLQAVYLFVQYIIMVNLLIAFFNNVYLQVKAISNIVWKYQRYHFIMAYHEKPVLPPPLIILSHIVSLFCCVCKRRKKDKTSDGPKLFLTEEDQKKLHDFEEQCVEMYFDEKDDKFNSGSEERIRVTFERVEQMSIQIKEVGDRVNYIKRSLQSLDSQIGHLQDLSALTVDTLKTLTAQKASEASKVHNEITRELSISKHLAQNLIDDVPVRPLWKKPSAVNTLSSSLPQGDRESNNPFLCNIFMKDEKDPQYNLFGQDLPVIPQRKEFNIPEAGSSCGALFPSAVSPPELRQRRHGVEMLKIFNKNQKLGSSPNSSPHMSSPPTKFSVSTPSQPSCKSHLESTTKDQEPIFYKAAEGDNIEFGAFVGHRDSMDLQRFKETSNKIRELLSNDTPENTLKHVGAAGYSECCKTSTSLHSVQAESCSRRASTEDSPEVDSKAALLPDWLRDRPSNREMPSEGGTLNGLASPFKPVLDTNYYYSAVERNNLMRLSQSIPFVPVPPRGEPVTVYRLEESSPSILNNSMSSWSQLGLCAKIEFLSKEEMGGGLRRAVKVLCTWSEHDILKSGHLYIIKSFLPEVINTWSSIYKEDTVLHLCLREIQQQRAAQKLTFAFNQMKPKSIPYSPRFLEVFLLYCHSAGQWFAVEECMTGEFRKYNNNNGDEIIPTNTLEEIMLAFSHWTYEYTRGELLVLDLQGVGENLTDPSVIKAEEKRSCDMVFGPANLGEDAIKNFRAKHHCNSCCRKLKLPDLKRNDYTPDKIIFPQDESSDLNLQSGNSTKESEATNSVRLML
T2 sequence (Q96QT4 whole entry): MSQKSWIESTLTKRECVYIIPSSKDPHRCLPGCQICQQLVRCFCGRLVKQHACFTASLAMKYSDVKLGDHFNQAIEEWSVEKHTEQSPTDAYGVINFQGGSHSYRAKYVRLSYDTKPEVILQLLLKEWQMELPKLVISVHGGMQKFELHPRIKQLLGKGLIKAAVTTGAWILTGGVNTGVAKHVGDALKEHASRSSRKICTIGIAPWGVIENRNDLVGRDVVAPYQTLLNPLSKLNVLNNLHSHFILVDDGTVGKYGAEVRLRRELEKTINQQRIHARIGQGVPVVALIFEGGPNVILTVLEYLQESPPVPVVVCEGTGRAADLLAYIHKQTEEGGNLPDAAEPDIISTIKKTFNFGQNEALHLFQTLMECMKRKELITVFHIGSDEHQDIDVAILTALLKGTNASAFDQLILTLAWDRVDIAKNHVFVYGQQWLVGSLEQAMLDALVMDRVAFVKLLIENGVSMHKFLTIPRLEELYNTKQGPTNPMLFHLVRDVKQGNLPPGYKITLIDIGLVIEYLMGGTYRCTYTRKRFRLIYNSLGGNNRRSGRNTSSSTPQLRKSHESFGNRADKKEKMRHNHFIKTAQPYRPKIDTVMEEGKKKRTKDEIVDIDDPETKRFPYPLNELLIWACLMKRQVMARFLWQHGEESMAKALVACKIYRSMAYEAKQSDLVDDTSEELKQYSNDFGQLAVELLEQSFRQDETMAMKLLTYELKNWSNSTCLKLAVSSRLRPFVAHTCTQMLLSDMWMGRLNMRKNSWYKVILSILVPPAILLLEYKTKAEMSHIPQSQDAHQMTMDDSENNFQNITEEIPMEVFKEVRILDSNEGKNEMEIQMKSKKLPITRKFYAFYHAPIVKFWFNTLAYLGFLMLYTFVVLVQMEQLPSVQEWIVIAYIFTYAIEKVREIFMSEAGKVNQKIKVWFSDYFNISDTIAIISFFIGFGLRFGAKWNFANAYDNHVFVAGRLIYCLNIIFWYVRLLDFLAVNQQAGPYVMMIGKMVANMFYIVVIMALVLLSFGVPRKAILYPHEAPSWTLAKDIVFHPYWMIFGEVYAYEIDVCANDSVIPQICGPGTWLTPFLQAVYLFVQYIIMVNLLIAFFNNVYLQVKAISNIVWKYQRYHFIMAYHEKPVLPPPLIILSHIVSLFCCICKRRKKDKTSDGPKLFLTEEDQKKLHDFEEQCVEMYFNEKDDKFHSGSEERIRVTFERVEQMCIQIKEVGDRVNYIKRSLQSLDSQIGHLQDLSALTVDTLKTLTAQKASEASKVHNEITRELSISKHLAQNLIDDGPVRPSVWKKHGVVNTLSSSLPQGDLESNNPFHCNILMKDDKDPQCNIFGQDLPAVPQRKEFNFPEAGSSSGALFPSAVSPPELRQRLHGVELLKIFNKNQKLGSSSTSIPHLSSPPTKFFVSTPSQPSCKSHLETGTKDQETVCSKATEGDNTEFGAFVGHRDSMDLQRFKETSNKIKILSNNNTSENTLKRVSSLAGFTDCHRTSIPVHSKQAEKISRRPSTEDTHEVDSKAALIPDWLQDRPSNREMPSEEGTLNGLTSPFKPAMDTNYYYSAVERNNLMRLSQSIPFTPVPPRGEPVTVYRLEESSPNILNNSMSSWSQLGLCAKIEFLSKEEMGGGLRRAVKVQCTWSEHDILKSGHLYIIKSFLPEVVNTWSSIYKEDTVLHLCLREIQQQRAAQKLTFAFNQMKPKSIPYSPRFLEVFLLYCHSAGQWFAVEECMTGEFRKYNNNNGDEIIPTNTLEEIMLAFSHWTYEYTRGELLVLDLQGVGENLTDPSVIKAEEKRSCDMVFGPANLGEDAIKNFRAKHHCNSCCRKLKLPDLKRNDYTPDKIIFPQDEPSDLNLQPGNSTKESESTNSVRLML

## N=C(N)c1ccc2cc(O)ccc2c1 [AN, 6-amidino-2-naphthol]
[1]; 200 μM, normalized current
  I compound / I control, pre-applied: 85 ± 5%
[1]; [9]
  block of TRPM7 current, co-applied: only partially inhibited
[1]; 1 mM, normalized current
  I compound / I control, co-applied: 69 ± 29%
[1]; concentration not given
  potentiation of TRPM7 current, pre-applied: no potentiation

## [Ca+2] [Ca^2+]
[2]
  reduction of IC50 for monovalent cation block on decreasing pH from 7.4 to 4.0: 410 fold

## N=C(N)c1ccc(-c2cc3ccc(C(=N)N)cc3[nH]2)cc1 [DAPI]
[1]; 25 μM, 2 mM Ca2+ and 1 mM Mg2+
  direct activation of TRPM7 current at physiological divalent cations: without effect
[1]; 100 μM, 2 mM Ca2+ and 1 mM Mg2+
  direct activation of TRPM7 current at physiological divalent cations: strong effect
[1]; 250 μM, current evoked by 0.1 mM Ca2+ and 0.1 mM Mg2+
  block of TRPM7 current: completely and reversibly blocked
[1]; [10]
  Hill coefficient: 1.8
  IC50: 38 µM

## CCOC(=O)c1ccc(OC(=O)CCCCCNC(=N)N)cc1 [Gabexate, gabexate]
[1]; 200 μM
  potentiation of TRPM7 current, pre-exposed: failed to potentiate
[1]; 200 μM, read-out: inhibition of TRPM7 current, co-applied
  inhibition at 200 µM: 45 ± 3%

## [Gd+3] [Gd^3+]
[1]; 10 μM
  inhibition of TRPM7 current activated by NM: 97 ± 2%

## CC(=O)N[C@@H](CC(C)C)C(=O)N[C@@H](CC(C)C)C(=O)N[C@H](C=O)CCCNC(=N)N [Leupeptin, leupeptin]
[1]; 200 μM
  potentiation of TRPM7 current, pre-exposed: no inhibitory or potentiating effects
[1]; [11]
  block of TRPM7 current, co-applied: no inhibitory or potentiating effects

## [Mg+2] [Mg^2+]
[2]
  reduction of IC50 for monovalent cation block on decreasing pH from 7.4 to 4.0: 510 fold

## N=C(N)c1ccc2cc(OC(=O)c3ccc(N=C(N)N)cc3)ccc2c1 [NM, 6-amidino-2-naphthyl-4-guanidinobenzobate dimethanesulfonate]
[3]
  firing frequency of action potentials: 6.8 ± 2.9 Hz
[4]; 500 μM NM
  effect on blocking potency of extracellular divalent cations: substantially reduced the blocking potency
[4]; +100 mV
  increase of inhibitory potency in divalent-free solution versus 0.1 mM divalents: about 5 fold
[4]; +100 mV, 0.1 mM Ca2+ and 0.1 mM Mg2+
  Hill coefficient: 1.4
[4]; +100 mV, 0.1 mM Ca2+ and 0.1 mM Mg2+, read-out: IC50, inhibition of outward TRPM7 current
  IC50: 617 µM
[4]; +100 mV, divalent free solution
  Hill coefficient: 1.2
[4]; +100 mV, divalent free solution, read-out: IC50, inhibition of TRPM7 current
  IC50: 121 µM
[4]; -100 mV
  increase of inhibitory potency in divalent-free solution versus 0.1 mM divalents: 30 fold
[4]; -100 mV, 0.1 mM Ca2+ and 0.1 mM Mg2+
  Hill coefficient: 1.3
[4]; -100 mV, 0.1 mM Ca2+ and 0.1 mM Mg2+, read-out: IC50, inhibition of inward TRPM7 current
  IC50: 514 µM
[4]; -100 mV, divalent free solution
  Hill coefficient: 1.3
[4]; -100 mV, divalent free solution, read-out: IC50, inhibition of TRPM7 current
  IC50: 15 µM
[4]; TRPM7-transfected HEK293T cells, ramp-clamp, inward currents at -100 mV
  potentiation of TRPM7 currents: potentiates
[4]; in the presence of 1 mM Ca2+ and Mg2+
  inhibition of TRPM7 currents: failed to inhibit
[1]; 25 μM, 2 mM Ca2+ and 1 mM Mg2+
  direct activation of TRPM7 current at physiological divalent cations: little effects
[1]; 0.1 mM Ca2+ (with 0.1 Mg2+)
  amplitude of NM-induced current: 1018 ± 120 pA
[1]; 200 μM applied before lowering divalent cations, current evoked by 0.1 mM Ca2+ and 0.1 mM Mg2+
  potentiation of evoked TRPM7 current, pre-exposed: about 3.6 ± 0.4 fold
[1]; [12]
  offset time constant of inhibition: 1.07 ± 0.20 s
  onset time constant of inhibition: 0.29 ± 0.04 s
[1]; 200 μM, 2 mM Ca2+ and 1 mM Mg2+
  direct activation of TRPM7 current at physiological divalent cations: induced small inward currents
[1]; 200 μM, 2 mM Ca2+ and 1 mM Mg2+, brief washout
  current amplitude upon NM washout: 379 ± 86 pA
[1]; 200 μM, 2 mM Ca2+ and 1 mM Mg2+, during application
  amplitude of NM-induced current: 243 ± 66 pA
[1]; 200 μM, 2 mM Ca2+ and 1 mM Mg2+, voltage ramps
  reversal potential of NM-induced current: 0 mV
[1]; [11]
  block of TRPM7 current, co-applied: completely blocks
[1]; 200 μM, current evoked by zero divalent cations
  block of TRPM7 current, co-applied: reversibly blocked
[1]; 2 mM Ca2+ (with 1 mM Mg2+)
  amplitude of NM-induced current: 291 ± 52 pA
[1]; 10 mM Ca2+ (with 1 mM Mg2+)
  amplitude of NM-induced current: 147 ± 20 pA
[1]; [10]
  Hill coefficient: 1.4
  IC50: 27 µM
[5]
  inhibition by NM of currents, relative to WT: strongly depressed
[6]
  net increase of 340/380 ratio on lowering extracellular Ca2+: 0.20 ± 0.08
[7]; 200 μM, 2 mM Ca2+, no Mg2+, MK801, CNQX, nimodipine present
  NM-induced change of intracellular concentration of Ca2+: induced an increase
[7]; NM 50 μM, Ca2+ from 2.0 mM to 0.5 mM, no added Mg2+, without NM 2.64 ± 0.48
  net increase of 340/380 ratio on lowering extracellular Ca2+: 0.61 ± 0.32
[7]; NM 50 μM, KCl 50 mM, 1.67 in the absence of NM
  net increase of 340/380 ratio induced by KCl: 1.84
[8]
  effect on slowly activating inward current induced by lowering divalent cations: attenuated

## Cn1cc(NC(=O)c2cc(NC(=O)CN=C(N)N)cn2C)cc1C(=O)NCCC(=N)N [netropsin]
[1]; 200 μM
  potentiation of TRPM7 current, pre-exposed: nor potentiated
[1]; [11]
  block of TRPM7 current, co-applied: neither blocked

## N=C(N)Nc1ccc(C(=O)O)cc1 [p-GBA, p-guanidinobenzoic acid]
[1]; [9]
  block of TRPM7 current, co-applied: neither inhibited
[1]; 1 mM, normalized current
  I compound / I control, co-applied: 94 ± 3%
  I compound / I control, pre-exposed: 96 ± 1%
[1]; up to 1 mM
  potentiation of TRPM7 current, pre-exposed: nor potentiated

## N=C(N)NCCCCCCCCCCNC(=N)N [synthalin]
[1]; 200 μM
  potentiation of TRPM7 current, pre-exposed: did not block or potentiate
[1]; [11]
  block of TRPM7 current, co-applied: did not block or potentiate
